Results from PubChem BioAssay AID2060627 (Molecular Pharmacology Branch, DTP, NCI, 2025).
Values joined by “and” are separate entries in the source; they are usually repeats but may differ in a detail not shown here. Equal values may be shown once.

System: 156681-154-R-J1-PDC complex spheroid viability
Assay: Anticancer human tumor 156681-154-R-J1-PDC patient-derived melanoma cell line growth inhibition [CLK]
Conditions: for viability, T/C: stronger effect = lower value; active = viability on the fitted dose curve at most 10% of control; inactive = the rest
Procedure, shortened: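 Patient-derived tumor cells grown as complex spheroids with HUVEC endothelial cells and mesenchymal stem cells, treated with drug combinations. Concentrations descend in half-log steps from near clinical Cmax, or from 10 microM if Cmax unknown.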

[1] = curve of first compound, second compound 0.0316 µM
[2] = curve of first compound, second compound 0.1 µM
[3] = curve of first compound, second compound 0.316 µM
[4] = curve of first compound, second compound 1 µM
[5] = curve of first compound, second compound 3.16 µM
[6] = curve of first compound, second compound 10 µM
[7] = second compound 0.0316 µM, first compound 0.0316 µM
[8] = second compound 0.0316 µM, first compound 0.1 µM
[9] = second compound 0.0316 µM, first compound 0.316 µM
[10] = second compound 0.0316 µM, first compound 1 µM
[11] = second compound 0.0316 µM, first compound 3.16 µM
[12] = second compound 0.0316 µM, first compound 10 µM
[13] = second compound 0.1 µM, first compound 0.0316 µM
[14] = second compound 0.1 µM, first compound 0.1 µM
[15] = second compound 0.1 µM, first compound 0.316 µM
[16] = second compound 0.1 µM, first compound 1 µM
[17] = second compound 0.1 µM, first compound 3.16 µM
[18] = second compound 0.1 µM, first compound 10 µM
[19] = second compound 0.316 µM, first compound 0.0316 µM
[20] = second compound 0.316 µM, first compound 0.1 µM
[21] = second compound 0.316 µM, first compound 0.316 µM
[22] = second compound 0.316 µM, first compound 1 µM
[23] = second compound 0.316 µM, first compound 3.16 µM
[24] = second compound 0.316 µM, first compound 10 µM
[25] = second compound 1 µM, first compound 0.0316 µM
[26] = second compound 1 µM, first compound 0.1 µM
[27] = second compound 1 µM, first compound 0.316 µM
[28] = second compound 1 µM, first compound 1 µM
[29] = second compound 1 µM, first compound 3.16 µM
[30] = second compound 1 µM, first compound 10 µM
[31] = second compound 3.16 µM, first compound 0.0316 µM
[32] = second compound 3.16 µM, first compound 0.1 µM
[33] = second compound 3.16 µM, first compound 0.316 µM
[34] = second compound 3.16 µM, first compound 1 µM
[35] = second compound 3.16 µM, first compound 3.16 µM
[36] = second compound 3.16 µM, first compound 10 µM
[37] = second compound 10 µM, first compound 0.0316 µM
[38] = second compound 10 µM, first compound 0.1 µM
[39] = second compound 10 µM, first compound 0.316 µM
[40] = second compound 10 µM, first compound 1 µM
[41] = second compound 10 µM, first compound 3.16 µM
[42] = second compound 10 µM, first compound 10 µM
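Note: spheroids exposed to the agents for seven days.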
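Throughout, for viability, T/C: 100% = DMSO vehicle control viability.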

O=c1[nH]cc(F)c(=O)[nH]1
6800 nM and 7000 nM: IC50 (curve of compound)
inactive: viability, T/C (compound 0.0316 µM) 72.7% and 87.1% | viability, T/C (compound 0.1 µM) 85.4% and 88.9% | viability, T/C (compound 0.316 µM) 84.8% and 79.8% | viability, T/C (compound 1 µM) 91% and 90.6% | viability, T/C (compound 3.16 µM) 81.6% and 80.6% | viability, T/C (compound 10 µM) 34% and 35.9%

Nc1ccccc1NC(=O)c1ccc(CNC(=O)OCc2cccnc2)cc1
0.46% and 0.13%: viability, T/C (compound 10 µM)
674 nM and 305 nM: IC50 (curve of compound)
inactive: viability, T/C (compound 0.0316 µM) 105% and 91.2% | viability, T/C (compound 0.1 µM) 98.8% and 108% | viability, T/C (compound 0.316 µM) 71.4% and 47.5% | viability, T/C (compound 1 µM) 40.7% and 27% | viability, T/C (compound 3.16 µM) 6.65% and 4.95%

CC1(C)CCC(CN2CCN(c3ccc(C(=O)NS(=O)(=O)c4ccc(NCC5CCOCC5)c([N+](=O)[O-])c4)c(Oc4cnc5[nH]ccc5c4)c3)CC2)=C(c2ccc(Cl)cc2)C1 + CNC(=O)c1ccc(Nc2nc(OC3CCCC3)c3c(-c4ccc5nc(C)oc5c4)c[nH]c3n2)c(OC)c1
5040 nM: IC50 [1]
4190 nM: IC50 [2]
inactive: viability, T/C [7] 92.9% | viability, T/C [8] 101% | viability, T/C [9] 103% | viability, T/C [10] 96.8% | viability, T/C [11] 83% | viability, T/C [13] 66.6% | viability, T/C [14] 80% | viability, T/C [15] 82% | viability, T/C [16] 70.4% | viability, T/C [17] 65.8% | viability, T/C [19] 67.1% | viability, T/C [20] 72.9% | viability, T/C [21] 65.2% | viability, T/C [22] 74.1% | viability, T/C [23] 51.2% | viability, T/C [25] 59.7% | viability, T/C [26] 62.7% | viability, T/C [27] 46.6% | viability, T/C [28] 57% | viability, T/C [29] 44.8% | viability, T/C [31] 42.6% | viability, T/C [32] 37.8% | viability, T/C [33] 36.2% | viability, T/C [34] 50.4% | viability, T/C [35] 32.1% | viability, T/C [37] 46.6% | viability, T/C [38] 34.7% | viability, T/C [39] 39.9% | viability, T/C [40] 41.4% | viability, T/C [41] 30.2%
3250 nM: IC50 [3]
active: viability, T/C [12] 1.52% | viability, T/C [18] 0.92% | viability, T/C [24] 0.88% | viability, T/C [30] 2.29% | viability, T/C [36] 1.28% | viability, T/C [42] 0.58%
1860 nM: IC50 [4]
< 31.6 nM: IC50 [5] | IC50 [6]

C=CC(=O)N1CCN(c2nc(=O)n(-c3c(C)ccnc3C(C)C)c3nc(-c4c(O)cccc4F)c(F)cc23)C(C)C1 (stereo not given)
> 10000 nM: IC50 (curve of compound)
inactive: viability, T/C (compound 0.0316 µM) 99.5% and 84.9% | viability, T/C (compound 0.1 µM) 91.5% and 76.2% | viability, T/C (compound 0.316 µM) 101% and 112% | viability, T/C (compound 1 µM) 89.7% and 114% | viability, T/C (compound 3.16 µM) 116% and 106% | viability, T/C (compound 10 µM) 80.5% and 108%

CC(Nc1ccc2c(c1)OCCn1cc(N3C(=O)OCC3C(F)F)nc1-2)C(N)=O (stereo not given) + CN1CCN(c2cc(C(=O)Nc3cc4cc(-c5cnn(C)c5)ccc4cn3)ccn2)CC1
302 nM: IC50 [1]
< 31.6 nM: IC50 [3] | IC50 [4] | IC50 [5] | IC50 [6]
241 nM: IC50 [2]
active: viability, T/C [22] 6.71% | viability, T/C [23] 4.44% | viability, T/C [24] 4.8% | viability, T/C [25] 0.14% | viability, T/C [26] 0.42% | viability, T/C [27] 0.1% | viability, T/C [28] 0.05% | viability, T/C [29] 0.4% | viability, T/C [30] 0.2% | viability, T/C [31] 0.05% | viability, T/C [32] 1.73% | viability, T/C [33] 2.06% | viability, T/C [34] 0.08% | viability, T/C [35] 1.56% | viability, T/C [36] 1.84% | viability, T/C [37] 0.11% | viability, T/C [38] 0.1% | viability, T/C [39] 1.26% | viability, T/C [40] 2.64% | viability, T/C [41] 2.45% | viability, T/C [42] 1.35%
inactive: viability, T/C [7] 85.4% | viability, T/C [8] 67% | viability, T/C [9] 49.4% | viability, T/C [10] 34% | viability, T/C [11] 30% | viability, T/C [12] 20% | viability, T/C [13] 73.4% | viability, T/C [14] 65.6% | viability, T/C [15] 43.5% | viability, T/C [16] 29.9% | viability, T/C [17] 20% | viability, T/C [18] 13.7% | viability, T/C [19] 21.1% | viability, T/C [20] 15.7% | viability, T/C [21] 15%
